Laboratory results: patent US20250034159A1, “INHIBITORS OF EPIDERMAL GROWTH FACTOR RECEPTOR” (ORIC Pharmaceuticals, Inc., priority 2021, published 2025)
Where two headings read alike, the source gives them in different places.

What was measured:
[1] = target: recombinant human EGFR exon 19 deletion/C797S double mutant protein (Homo sapiens (Human), UniProt P00533, C797S/DEL746-750); test: Biological Activity Assay C: biochemical assay against EGFR exon 19 deletion/C797S protein (EGFR d19/CS)
Outline: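 IC50 values were fitted with a 4-parameter model to reaction slopes taken from 90 kinetic reads spaced 120 s apart. The Phosphosens sensor/ATP working solution was 40 uM/4 mM, and compound was dosed as 16-point dilutions at 2.5% final DMSO.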

BaF3_EGFR LR/CS cells = test: Biological Activity Assay D: BaF3 cell proliferation assay, EGFR L858R/C797S mutant (BaF3 LR/CS); format: cell-based; settings: Ba/F3 EGFR, read-out: BaF3 LR/CS IC50
Ba/F3_EGFR WT cells = test: Biological Activity Assay D: BaF3 cell proliferation assay, EGFR wild-type (BaF3 WT); format: cell-based; settings: Ba/F3 EGFR, read-out: BaF3 WT IC50
BaF3_EGFR d19/CS cells = test: Biological Activity Assay D: BaF3 cell proliferation assay, EGFR exon 19 deletion/C797S (BaF3 d19/CS); format: cell-based; settings: Ba/F3 EGFR, read-out: BaF3 d19/CS IC50
[2] = BaF3_EGFR LR/CS cells, ~72 hours, CellTiter-Glo
[3] = Ba/F3_EGFR WT cells, ~72 hours, CellTiter-Glo
[4] = BaF3_EGFR d19/CS cells, ~72 hours, CellTiter-Glo

recombinant human EGFR exon 19 deletion/C797S double mutant protein, sequence (P00533 other isoform, or with tags, fused parts or gaps C797S/del 1-668/del 746-750 limits assumed): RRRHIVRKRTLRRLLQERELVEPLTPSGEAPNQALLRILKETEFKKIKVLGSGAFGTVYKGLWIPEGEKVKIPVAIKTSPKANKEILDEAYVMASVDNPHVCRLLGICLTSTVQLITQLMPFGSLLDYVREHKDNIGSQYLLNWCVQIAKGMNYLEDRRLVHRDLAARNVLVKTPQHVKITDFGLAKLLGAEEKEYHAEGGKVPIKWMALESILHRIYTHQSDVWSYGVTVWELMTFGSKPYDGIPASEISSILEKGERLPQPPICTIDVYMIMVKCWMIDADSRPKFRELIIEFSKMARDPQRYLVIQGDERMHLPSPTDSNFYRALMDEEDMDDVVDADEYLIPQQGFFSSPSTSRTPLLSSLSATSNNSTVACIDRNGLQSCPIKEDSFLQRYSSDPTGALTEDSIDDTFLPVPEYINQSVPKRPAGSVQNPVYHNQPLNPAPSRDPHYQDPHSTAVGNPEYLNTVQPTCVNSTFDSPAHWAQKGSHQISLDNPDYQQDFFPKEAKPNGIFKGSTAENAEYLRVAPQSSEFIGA

Row | IC50 [1] [nM] | IC50 (BaF3_EGFR LR/CS cells; [2]) [nM] | IC50 (Ba/F3_EGFR WT cells; [3]) [nM] | IC50 (BaF3_EGFR d19/CS cells; [4]) [nM] | Structure (SMILES) | IC50 (BaF3_EGFR LR/CS cells; 72 h) [nM] | IC50 (Ba/F3_EGFR WT cells; 72 h) [nM] | IC50 (BaF3_EGFR d19/CS cells; 72 h) [nM]
1 | 0.97 | 81.5 | 3050 | 127 | Fc1ccc(-c2nn([C@@H]3CCCOC3)cc2-c2ncnc3oc(-c4ccccc4)cc23)cc1 (single isomer, unassigned) [Example 136] |  |  | 
2 | 0.55 | 91.7 | 1040 | 96.2 | Cn1cc(-c2cc3c(-c4cn(C5CS(=O)(=O)C5)nc4-c4ccc(F)cc4)ncnc3o2)nn1 [Example 244, 3-{3-(4-fluorophenyl)-4-[6-(1-methyl-1H-1,2,3-triazol-4-yl)furo[2,3-d]pyrimidin-4-yl]-1H-pyrazol-1-yl}-16-thietane-1,1-dione] |  |  | 
3 | 0.55 | 83.6 | 3210 | 114 | CC(C)(O)CCn1cc(-c2ncnc3[nH]c(-c4ccccc4)nc23)c(-c2ccc(F)cc2)n1 [Example 145, 4-[3-(4-fluorophenyl)-4-(8-phenyl-9H-purin-6-yl)-1H-pyrazol-1-yl]-2-methylbutan-2-ol] |  |  | 
4 | 0.23 | 9.42 | 301 | 9.99 | N#CCCc1cccc(-c2cc3c(-c4cn(C5CS(=O)(=O)C5)nc4-c4ccc(F)cc4)ncnc3o2)c1 [Example 232, 3-(3-{4-[1-(1,1-dioxo-1λ6-thietan-3-yl)-3-(4-fluorophenyl)-1H-pyrazol-4-yl]furo[2,3-d]pyrimidin-6-yl}phenyl)propanenitrile] |  |  | 
5 | 0.26 | 15.1 | 782 | 33 | CC(C)(Cn1cc(-c2ncnc3oc(-c4ccccc4)cc23)c(-c2ccc(F)cc2)n1)C(N)=O [Example 158, 3-[3-(4-fluorophenyl)-4-(6-phenylfuro[2,3-d]pyrimidin-4-yl)-1H-pyrazol-1-yl]-2,2-dimethylpropanamide] |  |  | 
6 | 0.33 | 20.7 | 710 | 51.8 | CC1(C)C[C@H](Cn2cc(-c3ncnc4oc(-c5ccccc5)cc34)c(-c3ccc(F)cc3)n2)O1 (single isomer, unassigned) [Example 221] |  |  | 
7 | 0.206 | 4.53 | 550 | 10.1 | Cn1cc(-c2cc3c(-c4cn(CC(C)(C)O)nc4-c4ccc(F)cc4)ncnc3o2)cn1 [Example 261, 1-{3-(4-fluorophenyl)-4-[6-(1-methyl-1H-pyrazol-4-yl)furo[2,3-d]pyrimidin-4-yl]-1H-pyrazol-1-yl}-2-methylpropan-2-ol] |  |  | 
8 | 0.2 | 18.2 | 1010 | 20.8 | CC(C)(O)Cn1cc(-c2ncnc3oc(-c4ccccn4)cc23)c(-c2ccc(F)cc2)n1 [Example 257, 1-{3-(4-fluorophenyl)-4-[6-(pyridin-2-yl)furo[2,3-d]pyrimidin-4-yl]-1H-pyrazol-1-yl}-2-methylpropan-2-ol] |  |  | 
9 | 6.08 | 472 | 11700 | 248 | O=S1(=O)CC(n2cc(-c3ncnc4oc(-c5cncnc5)cc34)c(-c3ccc(F)cc3)n2)C1 [Example 175, 3-{3-(4-fluorophenyl)-4-[6-(pyrimidin-5-yl)furo[2,3-d]pyrimidin-4-yl]-1H-pyrazol-1-yl}-1λ6-thietane-1,1-dione] |  |  | 

Row | Structure (SMILES) | IC50 [1] [nM] | IC50 (BaF3_EGFR LR/CS cells; [2]) [nM] | IC50 (Ba/F3_EGFR WT cells; [3]) [nM] | IC50 (BaF3_EGFR d19/CS cells; [4]) [nM] | IC50 (BaF3_EGFR LR/CS cells; 72 h) [nM] | IC50 (Ba/F3_EGFR WT cells; 72 h) [nM] | IC50 (BaF3_EGFR d19/CS cells; 72 h) [nM]
10 | Cn1cncc1-c1cc2c(-c3cn(C4CS(=O)(=O)C4)nc3-c3ccc(F)cc3)ncnc2o1 [Example 217, 3-{3-(4-fluorophenyl)-4-[6-(1-methyl-1H-imidazol-5-yl)furo[2,3-d]pyrimidin-4-yl]-1H-pyrazol-1-yl}-16-thietane-1,1-dione] | 0.276 |  |  |  | 147 | 1240 | 98.9
11 | Cc1ncc(-c2cc3c(-c4cn(C5CS(=O)(=O)C5)nc4-c4ccc(F)cc4)ncnc3o2)s1 [Example 224, 3-{3-(4-fluorophenyl)-4-[6-(2-methyl-1,3-thiazol-5-yl)furo[2,3-d]pyrimidin-4-yl]-1H-pyrazol-1-yl}-16-thietane-1,1-dione] | 0.14 |  |  |  | 26.6 | 1450 | 37.7
